Measurements published in US9409952B2, “Peptide-compound cyclization method” (Chugai Seiyaku Kabushiki Kaisha, priority 2011, dated 2016).
Like-named read-outs stand apart in the source and are kept apart here. Starred links: 1 amine or outer side, 2 acyl side, 3 side chain; linkers in the order of their positions; H or OH if unused. Positions of bridges follow the written chain, without caps; N, C: chain ends. Non-standard residues stand in square brackets, D forms with d. Residues, ends and D or L forms follow the SMILES beside them. ξ: configuration not given here. *: point of attachment. NMeF = CN[C@@H](Cc1ccccc1)C(=O)O; NMeGABA = CN(CCCC(=O)[*:2])[*:1]; NMeβAla = CN(CCC(=O)[*:2])[*:1]; NMeL = CN[C@@H](CC(C)C)C(=O)O; NMeA = CN[C@@H](C)C(=O)O; Piperidide = C1CCN(*)CC1; ξP = O=C(O)C1CCCN1; Sar = CNCC(=O)O; tBu = CC(C)(C)*

How the values were obtained:
[1] = Metabolic stability in human hepatic microsome; assay type: in vitro ADME; settings: microsomes
[2] = PAMPA (parallel artificial membrane permeability assay); assay type: in vitro ADME; settings: PAMPA
Method in brief: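 Artificial membrane was 10% (w/v) egg lecithin plus 0.5% (w/v) cholesterol in dodecane on a PVDF filter. A 10 mM DMSO stock was added at 0.5% (v/v) to donor buffer (50 mM MOPSO, pH 6.5, 5.0% glycocholic acid). After 18 h at 37 °C, LC/MS or LC/UV gave donor and acceptor levels for Pe.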

[3] = pH 7.4, human hepatic microsome, NADPH(+), read-out: CL NADPH(+)
[4] = membrane permeation rate (Pe), 50 mM MOPSO buffer pH 6.5 with 5.0% glycocholic acid, 37° C., 18 hours, read-out: iPAMPA Pe

| Structure (SMILES) | microsomal CLint at 1 uM [1, 3] | Papp at 18 hours, 50 µM [2, 4] | microsomal CLint at 1 uM ([1]; human, pH 7.4, CL NADPH(+)) | Papp at 18 hours, 50 µM ([2]; pH 6.5) |
| --- | --- | --- | --- | --- |
| CC(C)C[C@@H]1NC(=O)[C@H](CC(C)C)N(C)C(=O)[C@H](COC(C)(C)C)NC(=O)[C@H](Cc2ccccc2)N(C)C(=O)[C@H](C)N(C)C(=O)C[C@@H](C(=O)N2CCCCC2)NC(=O)[C@H](CC(C)C)N(C)C(=O)[C@H]([C@@H](C)O)NC1=O [DP-698] ([NMeA][NMeF]S(tBu)[NMeL]LT[NMeL]D-Piperidide; lactam N-8) | 142 µL/min/mg | 31 ×10⁻⁶ cm/s | – | – |
| CC(C)C[C@H]1C(=O)N(C)[C@@H](Cc2ccccc2)C(=O)N[C@H](C(=O)N2CCCCC2)CC(=O)N(C)[C@@H](C)C(=O)N[C@@H](C)C(=O)N[C@@H]([C@@H](C)O)C(=O)N(C)[C@@H](CC(C)C)C(=O)N[C@@H](Cc2ccccc2)C(=O)N1C [DP-699] ([NMeA]AT[NMeL]F[NMeL][NMeF]D-Piperidide; lactam N-8) | 81 µL/min/mg | 29 ×10⁻⁶ cm/s | – | – |
| CC(C)C[C@H]1C(=O)N[C@@H]([C@@H](C)O)C(=O)N[C@@H](C)C(=O)N(C)[C@@H](Cc2ccccc2)C(=O)N[C@H](C(=O)N2CCCCC2)CC(=O)N(C)[C@@H](C)C(=O)N(C)[C@@H](CC(C)C)C(=O)N[C@@H](Cc2ccccc2)C(=O)N1C [DP-700] ([NMeA][NMeL]F[NMeL]TA[NMeF]D-Piperidide; lactam N-8) | 398 µL/min/mg | 49 ×10⁻⁶ cm/s | – | – |
| CC(C)C[C@@H]1NC(=O)[C@@H](C(C)C)NC(=O)C[C@@H](C(=O)N2CCCCC2)NC(=O)[C@H](Cc2ccccc2)N(C)C(=O)[C@H](CC(C)C)N(C)C(=O)[C@H](Cc2ccccc2)NC(=O)[C@H](C)N(C)C(=O)[C@H]([C@@H](C)O)NC1=O [DP-701] ([dV]LT[NMeA]F[NMeL][NMeF]D-Piperidide; lactam N-8) | 69 µL/min/mg | 31 ×10⁻⁶ cm/s | – | – |
| CC(C)C[C@@H]1NC(=O)[C@@H](C(C)C)NC(=O)C[C@@H](C(=O)N2CCCCC2)NC(=O)[C@H](Cc2ccccc2)NC(=O)[C@H](CC(C)C)N(C)C(=O)[C@H](Cc2ccccc2)N(C)C(=O)[C@H](C)N(C)C(=O)[C@H]([C@@H](C)O)NC1=O [DP-702] ([dV]LT[NMeA][NMeF][NMeL]FD-Piperidide; lactam N-8) | 123 µL/min/mg | 25 ×10⁻⁶ cm/s | – | – |
| CC(C)C[C@@H]1NC(=O)[C@H](Cc2ccccc2)N(C)C(=O)[C@@H](C(C)C)NC(=O)C[C@@H](C(=O)N2CCCCC2)NC(=O)[C@H](Cc2ccccc2)NC(=O)[C@H](CC(C)C)N(C)C(=O)[C@H]([C@@H](C)O)NC(=O)[C@H](CC(C)C)N(C)C1=O [DP-703] ([dV][NMeF]L[NMeL]T[NMeL]FD-Piperidide; lactam N-8) | 222 µL/min/mg | 34 ×10⁻⁶ cm/s | – | – |
| CC(C)C[C@H]1C(=O)N[C@H](C(=O)N2CCCCC2)CC(=O)N(C)CCC(=O)N[C@@H]([C@@H](C)O)C(=O)N(C)[C@@H](C)C(=O)N[C@@H](COC(C)(C)C)C(=O)N(C)[C@@H](Cc2ccccc2)C(=O)N(C)[C@@H](CC(C)C)C(=O)N1C [DP-704] ([NMeβAla]T[NMeA]S(tBu)[NMeF][NMeL][NMeL]D-Piperidide; lactam N-8) | 83 µL/min/mg | 29 ×10⁻⁶ cm/s | – | – |
| CC(C)C[C@H]1C(=O)N(C)[C@@H](CC(C)C)C(=O)N[C@@H]([C@@H](C)O)C(=O)N(C)[C@@H](Cc2ccccc2)C(=O)N[C@@H](COC(C)(C)C)C(=O)N(C)[C@@H](CC(C)C)C(=O)N[C@H](C(=O)N2CCCCC2)CC(=O)N(C)CCC(=O)N1C [DP-705] ([NMeβAla][NMeL][NMeL]T[NMeF]S(tBu)[NMeL]D-Piperidide; lactam N-8) | 265 µL/min/mg | 49 ×10⁻⁶ cm/s | – | – |
| CC(C)C[C@@H]1NC(=O)[C@H](CC(C)C)N(C)C(=O)[C@H](CC(C)C)N(C)C(=O)C[C@@H](C(=O)N2CCCCC2)NC(=O)[C@H](Cc2ccccc2)N(C)C(=O)C2CCCN2C(=O)[C@H]([C@@H](C)O)NC(=O)[C@H](Cc2ccccc2)N(C)C1=O (stereo partly drawn) [DP-706] ([NMeL][NMeL]L[NMeF]T[ξP][NMeF]D-Piperidide; lactam N-8) | – | – | 264 µL/min/mg | 48 ×10⁻⁶ cm/s |
| CC(C)C[C@H]1C(=O)N[C@@H](COC(C)(C)C)C(=O)N[C@H](C(=O)N2CCCCC2)CC(=O)N(C)[C@@H](C)C(=O)N(C)[C@@H](Cc2ccccc2)C(=O)N(C)[C@@H](CC(C)C)C(=O)N[C@@H]([C@@H](C)O)C(=O)N(C)[C@@H](C)C(=O)N1C [DP-707] ([NMeA][NMeF][NMeL]T[NMeA][NMeL]S(tBu)D-Piperidide; lactam N-8) | 84 µL/min/mg | 29 ×10⁻⁶ cm/s | – | – |
| CC(C)C[C@H]1C(=O)N[C@H](C(=O)N2CCCCC2)CC(=O)N[C@H](C)C(=O)N(C)[C@@H](Cc2ccccc2)C(=O)N(C)[C@@H](CC(C)C)C(=O)N[C@@H]([C@@H](C)O)C(=O)N(C)[C@@H](C)C(=O)N[C@@H](COC(C)(C)C)C(=O)N1C [DP-708] ([dA][NMeF][NMeL]T[NMeA]S(tBu)[NMeL]D-Piperidide; lactam N-8) | 35 µL/min/mg | 16 ×10⁻⁶ cm/s | – | – |
| CC(C)C[C@H]1C(=O)N[C@@H](COC(C)(C)C)C(=O)N[C@H](C(=O)N2CCCCC2)CC(=O)N(C)CC(=O)N[C@@H]([C@@H](C)O)C(=O)N(C)[C@@H](C)C(=O)N(C)[C@@H](Cc2ccccc2)C(=O)N(C)[C@@H](Cc2ccccc2)C(=O)N1C [DP-709] ([Sar]T[NMeA][NMeF][NMeF][NMeL]S(tBu)D-Piperidide; lactam N-8) | 90 µL/min/mg | 35 ×10⁻⁶ cm/s | – | – |
| CC(C)C[C@H]1C(=O)N(C)[C@@H](Cc2ccccc2)C(=O)N[C@H](C(=O)N2CCCCC2)CC(=O)N(C)[C@@H](C)C(=O)N[C@@H]([C@@H](C)O)C(=O)N(C)CC(=O)N[C@@H](COC(C)(C)C)C(=O)N(C)[C@@H](Cc2ccccc2)C(=O)N1C [DP-710] ([NMeA]T[Sar]S(tBu)[NMeF][NMeL][NMeF]D-Piperidide; lactam N-8) | 121 µL/min/mg | 44 ×10⁻⁶ cm/s | – | – |
| CC(C)C[C@H]1C(=O)N[C@@H](COC(C)(C)C)C(=O)N[C@H](C(=O)N2CCCCC2)CC(=O)N[C@@H](C)C(=O)N(C)[C@@H](Cc2ccccc2)C(=O)N(C)CC(=O)N(C)[C@@H](Cc2ccccc2)C(=O)N[C@@H]([C@@H](C)O)C(=O)N1C [DP-711] (A[NMeF][Sar][NMeF]T[NMeL]S(tBu)D-Piperidide; lactam N-8) | 217 µL/min/mg | 29 ×10⁻⁶ cm/s | – | – |
| CC(C)C[C@H]1C(=O)N(C)[C@@H](Cc2ccccc2)C(=O)N[C@H](C(=O)N2CCCCC2)CC(=O)N(C)CCCC(=O)N(C)[C@@H](C)C(=O)N(C)[C@@H](CC(C)C)C(=O)N[C@@H]([C@@H](C)O)C(=O)N(C)CC(=O)N1C [DP-712] ([NMeGABA][NMeA][NMeL]T[Sar][NMeL][NMeF]D-Piperidide; lactam N-8) | 57 µL/min/mg | 12 ×10⁻⁶ cm/s | – | – |
| CC(C)C[C@@H]1NC(=O)[C@H](CC(C)C)N(C)C(=O)[C@H](Cc2ccccc2)N(C)C(=O)[C@H]([C@@H](C)O)NC(=O)[C@H](CC(C)C)N(C)C(=O)CN(C)C(=O)CCCN(C)C(=O)C[C@@H](C(=O)N2CCCCC2)NC1=O [DP-713] ([NMeGABA][Sar][NMeL]T[NMeF][NMeL]LD-Piperidide; lactam N-8) | 169 µL/min/mg | 27 ×10⁻⁶ cm/s | – | – |
| CC(C)C[C@@H]1NC(=O)[C@H](CC(C)C)N(C)C(=O)[C@H]([C@@H](C)O)NC(=O)[C@H](Cc2ccccc2)N(C)C(=O)CN(C)C(=O)[C@H](CC(C)C)N(C)C(=O)[C@@H](C(C)C)NC(=O)C[C@@H](C(=O)N2CCCCC2)NC1=O [DP-714] ([dV][NMeL][Sar][NMeF]T[NMeL]LD-Piperidide; lactam N-8) | 145 µL/min/mg | 31 ×10⁻⁶ cm/s | – | – |
| CC(C)C[C@@H]1NC(=O)[C@H](CC(C)C)N(C)C(=O)[C@H]([C@@H](C)O)NC(=O)CCCN(C)C(=O)C[C@@H](C(=O)N2CCCCC2)NC(=O)[C@H](COC(C)(C)C)NC(=O)[C@H](Cc2ccccc2)N(C)C1=O [DP-715] ([NMeGABA]T[NMeL]L[NMeF]S(tBu)D-Piperidide; lactam N-7) | 134 µL/min/mg | 24 ×10⁻⁶ cm/s | – | – |
| CC(C)C[C@@H]1NC(=O)CCCN(C)C(=O)C[C@@H](C(=O)N2CCCCC2)NC(=O)[C@H](Cc2ccccc2)N(C)C(=O)[C@H]([C@@H](C)O)NC(=O)[C@H](CC(C)C)N(C)C(=O)[C@H](COC(C)(C)C)NC1=O [DP-716] ([NMeGABA]LS(tBu)[NMeL]T[NMeF]D-Piperidide; lactam N-7) | 133 µL/min/mg | 21 ×10⁻⁶ cm/s | – | – |
| CC(C)C[C@H]1C(=O)N[C@@H]([C@@H](C)O)C(=O)N(C)[C@@H](CC(C)C)C(=O)N(C)CC(=O)N(C)[C@@H](Cc2ccccc2)C(=O)N[C@@H](COC(C)(C)C)C(=O)N[C@H](C(=O)N2CCCCC2)CC(=O)N1C [DP-717] ([NMeL]T[NMeL][Sar][NMeF]S(tBu)D-Piperidide; lactam N-7) | 101 µL/min/mg | 21 ×10⁻⁶ cm/s | – | – |
| CC(C)C[C@@H]1NC(=O)C[C@@H](C(=O)N2CCCCC2)NC(=O)[C@H](COC(C)(C)C)NC(=O)[C@H]([C@@H](C)O)NC(=O)[C@H](Cc2ccccc2)N(C)C(=O)[C@H](CC(C)C)N(C)C(=O)CN(C)C1=O [DP-718] (L[Sar][NMeL][NMeF]TS(tBu)D-Piperidide; lactam N-7) | 99 µL/min/mg | 17 ×10⁻⁶ cm/s | – | – |
| CC(C)C[C@H]1C(=O)N(C)[C@@H](CC(C)C)C(=O)N(C)[C@@H](Cc2ccccc2)C(=O)N[C@H](C(=O)N2CCCCC2)CC(=O)N[C@@H](C(C)C)C(=O)N(C)CC(=O)N[C@@H]([C@@H](C)O)C(=O)N1C [DP-719] (V[Sar]T[NMeL][NMeL][NMeF]D-Piperidide; lactam N-7) | 218 µL/min/mg | 26 ×10⁻⁶ cm/s | – | – |
| CC(C)C[C@@H]1NC(=O)[C@H]([C@@H](C)O)NC(=O)[C@H](CC(C)C)N(C)C(=O)CN(C)C(=O)[C@H](Cc2ccccc2)N(C)C(=O)[C@H](C(C)C)NC(=O)C[C@@H](C(=O)N2CCCCC2)NC1=O [DP-720] (V[NMeF][Sar][NMeL]TLD-Piperidide; lactam N-7) | 62 µL/min/mg | 16 ×10⁻⁶ cm/s | – | – |
